Measured values: article PMC9516332 (Frontiers in Oncology, 2022)
Like-named read-outs stand apart in the source and are kept apart here.

How the values were obtained:
Assay in all cases: Kinase panel profiling at 1 µmol/L (MSA or IMAP), percentage inhibition
Type in all cases: biochemical
[1] = target: T1, panel of 255 wild-type kinases (Homo sapiens, UniProt O94806); settings: read-out: %-inhibition at 1 µmol/L, PKD3
T1 sequence (O94806 1-890): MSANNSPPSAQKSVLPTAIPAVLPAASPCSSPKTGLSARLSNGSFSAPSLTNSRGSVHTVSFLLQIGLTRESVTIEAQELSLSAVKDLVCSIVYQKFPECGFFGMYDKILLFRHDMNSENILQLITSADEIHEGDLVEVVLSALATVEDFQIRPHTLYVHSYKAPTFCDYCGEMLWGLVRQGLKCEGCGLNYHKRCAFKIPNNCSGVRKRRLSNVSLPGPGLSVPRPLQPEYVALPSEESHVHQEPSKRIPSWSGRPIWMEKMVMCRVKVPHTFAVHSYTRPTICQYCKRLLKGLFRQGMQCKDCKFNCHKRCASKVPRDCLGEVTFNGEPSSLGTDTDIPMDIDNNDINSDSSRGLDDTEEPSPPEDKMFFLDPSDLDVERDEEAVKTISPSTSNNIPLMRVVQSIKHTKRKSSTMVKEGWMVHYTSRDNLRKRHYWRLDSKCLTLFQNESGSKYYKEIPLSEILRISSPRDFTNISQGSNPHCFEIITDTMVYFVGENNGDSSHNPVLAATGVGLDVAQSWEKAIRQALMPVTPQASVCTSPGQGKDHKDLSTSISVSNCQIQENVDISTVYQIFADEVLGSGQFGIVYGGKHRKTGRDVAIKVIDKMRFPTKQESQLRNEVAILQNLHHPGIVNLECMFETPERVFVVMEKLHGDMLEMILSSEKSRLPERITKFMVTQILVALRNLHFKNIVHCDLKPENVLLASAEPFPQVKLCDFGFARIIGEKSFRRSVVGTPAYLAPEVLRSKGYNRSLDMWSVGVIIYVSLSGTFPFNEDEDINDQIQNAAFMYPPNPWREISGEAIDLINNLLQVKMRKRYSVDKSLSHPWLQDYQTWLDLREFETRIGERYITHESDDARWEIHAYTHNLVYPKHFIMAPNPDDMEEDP

[2] = target: panel of 255 wild-type kinases (Homo sapiens, UniProt Q16654); settings: read-out: %-inhibition at 1 µmol/L, PDHK4
[3] = target: panel of 255 wild-type kinases (Homo sapiens, UniProt Q13153); settings: read-out: %-inhibition, PAK1
[4] = target: panel of 255 wild-type kinases (Homo sapiens, UniProt P14616); settings: read-out: %-inhibition at 1 µmol/L, IRR
[5] = target: panel of 255 wild-type kinases (Homo sapiens, UniProt Q15119); settings: read-out: %-inhibition at 1 µmol/L, PDHK2
[6] = target: panel of 255 wild-type kinases (Homo sapiens, UniProt O94804); settings: read-out: %-inhibition at 1 µmol/L, LOK
[7] = target: panel of 255 wild-type kinases (Homo sapiens, UniProt P17948); settings: read-out: %-inhibition at 1 µmol/L, FLT1
[8] = target: T2, panel of 255 wild-type kinases (Homo sapiens, UniProt Q13470); settings: read-out: %-inhibition at 1 µmol/L, TNK1
T2 sequence (Q13470 1-666): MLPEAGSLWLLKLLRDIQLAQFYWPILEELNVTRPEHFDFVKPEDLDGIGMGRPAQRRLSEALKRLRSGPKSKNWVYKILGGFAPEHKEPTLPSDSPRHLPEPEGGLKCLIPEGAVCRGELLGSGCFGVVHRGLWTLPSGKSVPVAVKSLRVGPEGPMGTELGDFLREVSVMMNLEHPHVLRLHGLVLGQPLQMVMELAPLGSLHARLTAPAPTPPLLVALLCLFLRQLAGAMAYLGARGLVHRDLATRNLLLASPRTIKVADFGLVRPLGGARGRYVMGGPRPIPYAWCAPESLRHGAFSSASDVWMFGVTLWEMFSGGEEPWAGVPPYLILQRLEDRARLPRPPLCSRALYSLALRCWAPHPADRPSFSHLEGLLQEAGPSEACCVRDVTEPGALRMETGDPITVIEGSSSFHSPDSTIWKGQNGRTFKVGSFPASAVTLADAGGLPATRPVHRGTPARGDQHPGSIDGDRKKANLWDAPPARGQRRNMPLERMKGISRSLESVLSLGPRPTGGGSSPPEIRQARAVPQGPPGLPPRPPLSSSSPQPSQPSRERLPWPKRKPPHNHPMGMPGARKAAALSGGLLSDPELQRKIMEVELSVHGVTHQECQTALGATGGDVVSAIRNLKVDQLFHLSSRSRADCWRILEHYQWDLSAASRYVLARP

[9] = target: panel of 255 wild-type kinases (Homo sapiens, UniProt Q9H1R3); settings: read-out: %-inhibition at 1 µmol/L, skMLCK
[10] = target: panel of 255 wild-type kinases (Homo sapiens, UniProt P04629); settings: read-out: %-inhibition at 1 µmol/L, TRKA
[11] = target: panel of 255 wild-type kinases (Homo sapiens, UniProt Q86V86); settings: read-out: %-inhibition at 1 µmol/L, PIM3
[12] = target: panel of 255 wild-type kinases (Homo sapiens, UniProt Q9P0L2); settings: read-out: %-inhibition, MARK1
[13] = kinase PKD3, 1 µmol/L single concentration
[14] = kinase PDHK4, 1 µmol/L single concentration
[15] = PAK1, 1 µmol/L single concentration
[16] = kinase IRR, 1 µmol/L single concentration
[17] = kinase PDHK2, 1 µmol/L single concentration
[18] = kinase LOK, 1 µmol/L single concentration
[19] = kinase FLT1, 1 µmol/L single concentration
[20] = kinase TNK1, 1 µmol/L single concentration
[21] = kinase skMLCK, 1 µmol/L single concentration
[22] = kinase TRKA, 1 µmol/L single concentration
[23] = kinase PIM3, 1 µmol/L single concentration
[24] = MARK1, 1 µmol/L single concentration

Structure (SMILES) | inhibition at 1 µM [1, 13] [%] | inhibition at 1 µM [2, 14] [%] | inhibition at 1 µM [3, 15] [%] | inhibition at 1 µM [4, 16] [%] | inhibition at 1 µM [5, 17] [%] | inhibition at 1 µM [6, 18] [%] | inhibition at 1 µM [7, 19] [%] | inhibition at 1 µM [8, 20] [%] | inhibition at 1 µM [9, 21] [%] | inhibition at 1 µM [10, 22] [%] | inhibition at 1 µM [11, 23] [%] | inhibition at 1 µM [12, 24] [%] | further results
COC(=O)N[C@@H](C)CNc1nccc(-c2cn(C(C)C)nc2-c2cc(Cl)cc(NS(C)(=O)=O)c2F)n1 [encorafenib] | 5 | -2.11 | 12 | -3.65 | -2 | 1.24 | 17 | -3.4 | -4.51 | -2.7 | 10 | 2.71 | –
C[C@H](Nc1ncnc2nc[nH]c12)c1cc2cccc(Cl)c2c(=O)n1-c1ccccc1 [duvelisib] | -3.52 | 3 | -0.68 | 7 | 3.57 | 0.582 | 7.43 | -2.72 | -7 | 9 | -7 | 4.47 | –
CCN1CCN(c2ccc(Nc3cc(N(C)C(=O)Nc4c(Cl)c(OC)cc(OC)c4Cl)ncn3)cc2)CC1 [infigratinib] | 11 | -1.46 | 5 | 34 | -3.38 | 34 | 91 | 21 | -3 | 27 | 0.254 | -9 | –
CNC(=O)c1ccc(-c2cnc3ncc(Cc4ccc5ncccc5c4)n3n2)cc1F [capmatinib] | – | – | – | – | – | – | – | – | – | – | – | – | inhibition at 1 µM [1]: -3.34%; inhibition at 1 µM [2]: 0.789%; inhibition at 1 µM [3]: 4.66%; inhibition at 1 µM [4]: 4%; inhibition at 1 µM [5]: -2.62%; inhibition at 1 µM [6]: 0.859%; inhibition at 1 µM [7]: 5.7%; inhibition at 1 µM [8]: -11%; inhibition at 1 µM [9]: -2%; inhibition at 1 µM [10]: 39%; inhibition at 1 µM [11]: 1.78%; inhibition at 1 µM [12]: -5.32%
FC(F)(F)c1ccc(CNc2ccc(Cc3c[nH]c4ncc(Cl)cc34)cn2)cn1 [pexidartinib] | -12 | 4.63 | 2 | 14 | 4 | 25 | 82 | 37 | 12 | 79 | 4.68 | 3 | –
O=C(Nc1cnn2ccc(N3CCC[C@@H]3c3cc(F)ccc3F)nc12)N1CC[C@H](O)C1 [larotrectinib] | 8 | 2 | -3.56 | 1.69 | 5 | 5.3 | -0.638 | -0.876 | -6 | 99 | -5.31 | -6.38 | –
CN1CCN(c2ccc(C(=O)Nc3n[nH]c4ccc(Cc5cc(F)cc(F)c5)cc34)c(NC3CCOCC3)c2)CC1 [entrectinib] | 3 | 3.42 | -10 | 100 | 4.24 | 28 | 76 | 99 | 1.33 | – | -10 | 19 | –
C[C@H]1Oc2cc(cnc2N)-c2c(nn(C)c2C#N)CN(C)C(=O)c2ccc(F)cc21 [lorlatinib] | 1.46 | -0.664 | -2.12 | 78 | 1.88 | 87 | 3.17 | 97 | -0.456 | – | -6 | 11 | –
